Test results from ChEMBL document CHEMBL1201862, “PubChem BioAssay data set” (2004).
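Method: 48-hour compound exposure of cells in 96-well plates, five concentrations, linear interpolation of endpoints. The concentration for 50% growth inhibition is given as GI50.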 Active and inactive are the calls of the source. Rule as the data show it: active = GI50 up to about 1.1 µM and inactive = higher.

Key:
Experiment in all cases: growth of human tumour cells (NCI), 48 h
DMS-273 = system: DMS-273
KM-20L2 = system: KM-20L2
DMS-114 = system: DMS-114
HOP-18 = system: HOP-18
XF498 = system: XF498
M19-MEL = system: M19-MEL
SNB-78 = system: SNB-78
LXFL 529 = system: LXFL 529
RXF 631 = system: RXF 631

Measured: GI50

Cc1c(N(Cc2ccccc2)Cc2ccccc2)nc(S(C)(=O)=O)nc1S(C)(=O)=O
inactive: DMS-273 2.2 µM | KM-20L2 1.74 µM | DMS-114 1.82 µM | HOP-18 4.99 µM | XF498 1.73 µM | M19-MEL 1.54 µM | SNB-78 2.2 µM | LXFL 529 1.91 µM

COc1cccc(C2C(C(=O)O)=C(CO)Oc3cc4c(cc32)OCO4)c1 (configuration not stated)
inactive: KM-20L2 > 100 µM | DMS-114 > 100 µM | HOP-18 > 100 µM | XF498 36.5 µM | M19-MEL > 100 µM | SNB-78 > 100 µM | LXFL 529 > 100 µM

CC(C)(Br)C1(O)CCCN1C(=O)c1ccccc1 (configuration not stated)
inactive: DMS-273 > 100 µM | KM-20L2 > 100 µM | HOP-18 > 100 µM | RXF 631 > 100 µM | M19-MEL > 100 µM | SNB-78 > 100 µM | LXFL 529 > 100 µM

COc1ccc([Se][Se]c2ccc(OC)cc2OC)c(OC)c1
inactive: DMS-273 5.12 µM | DMS-114 2.01 µM | HOP-18 1.97 µM | RXF 631 6.31 µM | XF498 1.94 µM | M19-MEL 2.03 µM | SNB-78 2.66 µM | LXFL 529 2.1 µM

COC(=O)/C([Se]c1c(C)cc(C)cc1C)=C(\[Se]c1c(C)cc(C)cc1C)C(=O)OC
inactive: DMS-273 > 100 µM | KM-20L2 > 100 µM | DMS-114 > 100 µM | HOP-18 > 100 µM | RXF 631 > 100 µM | M19-MEL > 100 µM | SNB-78 > 100 µM | LXFL 529 > 100 µM

C=COCCCOc1ccccc1
inactive: DMS-273 > 100 µM | KM-20L2 > 100 µM | DMS-114 > 100 µM | HOP-18 1.53 µM | XF498 > 100 µM | M19-MEL > 100 µM | LXFL 529 > 100 µM

CCCn1cc2c3c(cccc31)C1C=C(C)CN(C)C1C2 (configuration not stated)
inactive: DMS-273 13.3 µM | KM-20L2 13 µM | DMS-114 15.1 µM | HOP-18 13.7 µM | SNB-78 30.3 µM

COC[C@@H](Cc1ccc(OC)c(OC)c1)[C@@H](COC)Cc1ccc(OC)c(OC)c1
inactive: DMS-273 76.6 µM | KM-20L2 > 100 µM | DMS-114 56.5 µM | HOP-18 > 100 µM | XF498 > 100 µM | M19-MEL > 100 µM | SNB-78 > 100 µM | LXFL 529 81.7 µM

CC(C)(C)OC(=O)NC1CCCC1=O (configuration not stated)
inactive: DMS-273 > 100 µM | KM-20L2 > 100 µM | RXF 631 > 100 µM | XF498 > 100 µM | M19-MEL > 100 µM | SNB-78 > 100 µM | LXFL 529 > 100 µM

C/C(=N/NS(=O)(=O)c1ccc([N+](=O)[O-])cc1)c1cccc[n+]1[O-]
inactive: DMS-273 > 100 µM | KM-20L2 > 100 µM | DMS-114 > 100 µM | HOP-18 > 100 µM | XF498 > 100 µM | M19-MEL > 100 µM | SNB-78 > 100 µM | LXFL 529 > 100 µM

C=C1C(=O)O[C@@H]2[C@H]3O[C@]3(C)CCC=C(C)CC[C@@H]12
inactive: DMS-273 24.6 µM | KM-20L2 24.8 µM | DMS-114 45.9 µM | HOP-18 14.9 µM | XF498 16.9 µM | M19-MEL 14.3 µM | SNB-78 18.2 µM

CN(C)/N=N/c1ccc([N+](=O)[O-])cc1C(N)=O
inactive: DMS-273 > 100 µM | KM-20L2 > 100 µM | DMS-114 > 100 µM | HOP-18 > 100 µM | XF498 > 100 µM | M19-MEL > 100 µM | SNB-78 > 100 µM
